Source: patent US20160175328A1, “COMPOSITIONS AND TREATMENTS OF HEART FAILURE IN NON-HUMAN MAMMAL ANIMALS” (CEVA SANTE ANIMALE SA, priority 2008, published 2016)
Entries after “also recorded” stand apart in the source; their conditions may differ.

Experiments:
[1] = system: dogs in hyperaldosteronemia; assay: Model for assessing the anti-aldosterone activity (urinary Na/K after aldosterone injection); format: in vivo, dog; conditions: for Urine flow rate: aldosterone treatment or aldosterone with spironolactone; for Urine Volume / log (Na × 10/K) / K / Na: N 15; for K / Na: urine; for reversal of the effect of aldosterone on the log ([Na+]urinary×10/[K+]urinary): first 6 hours and 12 hours after dosage
Procedure: They have been tattooed in advance for easy identification and situated in stainless steel individual boxes.
A preliminary study was performed in order to determining the ED80 value for the natriuretic effect of aldosterone on its own.
The dogs described above were allocated to different treatment groups (A, B, C, D, and E) and a rest period was left between treatments.
A negative control group A only received the pharmaceutical excipient. The positive control group B only received 3 μg/kg of aldosterone. […] 200 g food was then given immediately after treatment.
The samples were frozen and kept in the dark at approx. −80° C. […] Also, the urine was collected during the time periods ranging from T0-T6h; T6h-T12h and T12h-T24h.
After calibration and count, the quantity of aldosterone present in the sample was thus determined once counted.
The sodium and potassium contents in urines were determined using […]. […] According to this method 500 μL plasma were mixed with ethyl acetate (80/20, V/V) as solvents. […] The compounds and the internal standard (i.e. methyl-testosterone) were separated on a Kromasil C18 column.
A statistical analysis was performed with the STATGRAPHICS Plus version 4.1 software (Manugestics, Inc., Rockville, Md., U.S.A.). The results were presented such as averages±SD; p<0.05 is considered as significant.

[2] = system: patients affected by severe heart failure; conditions: 25 mg spironolactone with ACEI, loop diuretics, sometimes digoxin; 284 dead of 822; placebo group 46%; cited from earlier work
[3] = Pharmacokinetic study with 22-14C spironolactone, rat; format: in vivo; conditions: rats, after 4 hour oral administration of spironolactone
[4] = Plasmatic potassium (kalemia) measured during the clinical studies; format: in vivo, dog; conditions: for Low and transient hyperkalemia (5.9 to 6.4 mmol/L), cases: group on spironolactone
Procedure: The plasmatic potassium concentrations (mmol/L) were measured during the treatments. […] Only sporadic case of low or moderate hyperkalemia could be observed and these events were transient. Indeed, these hyperkalemia events could only be observed a couple of times during examinations, and some of them were present on day D1, before the beginning of the treatment.

[5] = Pharmacokinetic study with 22-14C spironolactone, monkey; format: in vivo; conditions: monkeys, after 4 hour oral administration of spironolactone
[6] = system: dogs affected by heart failure; assay: Clinical studies of spironolactone plus ACEI in dogs affected by heart failure; format: in vivo, dog; conditions: for reduction of the risk of mortality: oral spironolactone 2 mg/kg/day and a ACEI vs placebo and a ACEI; for Survival probability (absence of mortality): over 15 months (14-15 months), Placebo + ACEI 74%
Procedure: Multicentre, randomised, double-blind placebo-controlled clinical studies were conducted. An example of study concerned 221 dogs, the diagnosis of heart failure relying on persisting symptoms of cardiomegaly or cardiomyopathy after a first ACEI treatment. […] The 112-dog placebo group received a placebo in combination with an ACEI (for instance benazepril chlorhydrate in a dose of 0.25 mg/kg/day).
For gauging the effects of the treatment, both groups were examined five times, i.e., on the first day of treatment (D1), then on the 84th day (D84), […], 252nd day (D252) and 336th day (D336). This examination consisted of a clinical examination of the dogs, urine and blood analyses, and a radiograph. Moreover, an echocardiograph was taken on days D1, D168 and D336.
Also, the effects of the treatment were assessed on the symptoms such as cough and mobility, as well as on the prevention of symptoms such as dyspnoea, pulmonary edema, and tolerance to effort.

[7] = Pharmacokinetic study with 22-14C spironolactone, dog; format: in vivo; conditions: dogs, after 4 hour oral administration of spironolactone
[8] = group B, dosage 0, aldosterone 3 μg/kg
[9] = group C, spironolactone dosage 0.8, aldosterone 3 μg/kg
[10] = group D, spironolactone dosage 2, aldosterone 3 μg/kg
[11] = group E, spironolactone dosage 8, aldosterone 3 μg/kg

With C[C@]12CCC(=O)C=C1CC[C@@H]1[C@@H]2[C@@H](O)C[C@]2(C=O)[C@@H](C(=O)CO)CC[C@@H]12 [Aldosterone] the “increase of the urinary levels of K” value ([1]; aldosterone on its own) was 25%, the “reduction of the elimination of Na” value ([1]; aldosterone on its own) was “approx. 65%” and the Urine flow rate [1] was “not significantly modified”. The “Urine Volume” value [1, 8] was 115 ± 109 mL, the “log (Na × 10/K)” value [1, 8] was 0.70 ± 0.22 and the K [1, 8] was 116.6 mmol/L. For the same compound, the Na [1, 8] was 56.3 ± 29.9 mmol/L.
For CC(=O)S[C@@H]1CC2=CC(=O)CC[C@]2(C)[C@H]2CC[C@@]3(C)[C@@H](CC[C@@]34CCC(=O)O4)[C@H]12 [Spironolactone, 7α-acetylthio-3-oxo-17α-pregn-4-ene-21,17-carbolactone], the “dead (mortality) in the spironolactone group” value [2] is listed as 35%, the plasma radioactivity percentage [3] is listed as 66% and the “Low and transient hyperkalemia (5.9 to 6.4 mmol/L), cases” value (from here on “Low and transient hyperkalemia”) ([4]; 2-month clinical study (4 analyses)) is listed as 3. The “Low and transient hyperkalemia” value ([4]; 3-month clinical study (6 analyses)) was 5, the “Low and transient hyperkalemia” value ([4]; 12-month clinical study (5 analyses)) was 3 and the variation in kalemia ([4]; daily dose of spironolactone of 2 mg/kg/day, dogs) was “did not cause any variation in kalemia or only low transient variations in kalemia”. The “progression of average plasmatic potassium (kalemia), FIG. 9” value ([4]; spironolactone 2 mg/kg/day and ACEI vs placebo and ACEI) was “stable kalemia”, the plasma radioactivity percentage [5] was 33% and the ED50 ([1]; Canis lupus familiaris, read-out: ED50 (quantity of spironolactone to reach 50% of the maximum response), sigmoid Emax model, log ratio 0 to 6 hours) was 1.09 mg/kg. For the same compound, the Urine flow rate [1] was “not significantly modified”, the Emax-E0 ([1]; corresponded to 100% amplitude, E0 (control group) 0.527) was 0.5625 and the “Urine Volume” value [1, 9] was 148 ± 154 mL. For the same compound, the “log (Na × 10/K)” value [1, 9] was 0.85 ± 0.24, the “Urine Volume” value [1, 10] was 162 ± 103 mL and the “log (Na × 10/K)” value [1, 10] was 1.02 ± 0.21. For the same compound, the “Urine Volume” value [1, 11] was 190 ± 195 mL, the “log (Na × 10/K)” value [1, 11] was 1.14 ± 0.18 and the “elimination (excretion) of Na” value ([1]; higher dose of spironolactone, 8 mg/kg) was “other increases in the elimination of Na were observed; also recorded: Further increases in Na excretion”. For the same compound, the “Emax (maximum possible effect of spironolactone)” value ([1]; log ([Na+]urinary×10/[K+]urinary), Emax model) was 1.089, the “ED50 (quantity of spironolactone to reach 50% of the maximum response)” value ([1]; sigmoid Emax model, log ratio 0 to 6 hours) was 1.08 ± 0.28 mg/kg and the natriuretic responses ([1]; spironolactone 0.8 mg/kg) was “no effect on certain dogs”. For the same compound, the natriuretic responses ([1]; spironolactone 2 mg/kg) was “completely reversed”, the “reversal of the effect of aldosterone on the log ([Na+]urinary×10/[K+]urinary)” value ([1]; spironolactone 2 mg/kg) was “complete reversal” and the “reversal of the effect of aldosterone on the log ([Na+]urinary×10/[K+]urinary)” value ([1]; spironolactone 8 mg/kg) was “complete reversal”. For the same compound, the Potassium excretion ([1]; spironolactone 0.8, 2 and 8 mg/kg with aldosterone) was “spared up to 2 mg per kg but not after that”, the “E(2mg/kg)−E0” value ([1]; spironolactone approx. 2 mg/kg) was 0.4933 and the K [1, 9] was 91.8 mmol/L. For the same compound, the Na [1, 9] was 67.6 ± 49.3 mmol/L, the K [1, 10] was 74.2 mmol/L and the Na [1, 10] was 74.9 ± 40.2 mmol/L. It also gave a K [1, 11] of 88.9 mmol/L, a Na [1, 11] of 111.1 ± 67.9 mmol/L and a morbidity-mortality rates ([6]; 14-15 month, spironolactone 2 mg/kg/day + ACEI, against 25%) of 11%. The mortality rates ([6]; after 14-15 months, spironolactone 2 mg/kg/day + ACEI, reference group 20%) was 6%, the survival probabilities ([6]; dogs treated as of stage I of heart failure, approx. 3.5 years, spironolactone 2 mg/kg/day + ACEI, against 53%) was 100% and the survival probabilities ([6]; duration of 3 years, spironolactone 2 mg/kg/day + ACEI, reference group 64%) was 80%. The “clinical symptoms (cough, mobility, dyspnoea, pulmonary edema, tolerance to effort, syncopes)” value ([6]; group of dogs on spironolactone vs control group) was “improved symptoms such as cough and mobility were observed”, the “reduction of the risk of mortality” value ([6]; over 3 years) was 59% and the “reduction of the risk of mortality” value ([6]; over 14-15 months) was 65%. The “Survival probability (absence of mortality)” value ([6]; spironolactone 2 mg/kg/day + ACEI, 109 dogs) was 91%, the “Survival probability (absence of mortality)” value ([6]; spironolactone 2 mg/kg/day + ACEI, 109 dogs, listed as spironolactone) was 91% and the ““survival” probability (absence of morbi-mortality)” value ([6]; over 15 months, spironolactone 2 mg/kg/day + ACEI, 109 dogs, Placebo + ACEI 67%) was 84%. It also gave a plasma radioactivity percentage [7] of 76%.
